According to patent US11566007B2, “Ras inhibitors” (Revolution Medicines, Inc., priority 2019, dated 2023):
pIC50: −log10 of the molar value.

Assays:
Assay type in all cases: biochemical
K-Ras G13C = K-Ras G13C (Homo sapiens (Human), UniProt P01116+P62937, G13C); assay: Ras-Raf (BRAF RBD) disruption / FRET / MOA assay, KRAS G13C; settings: KRAS G13C; Ras-Raf disruption/FRET/MOA assay; read-out: IC50* KRAS G13C FRET data
Method in brief: (§1)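 Ras:RAF disruption was scored as a fall in TR-FRET ratio relative to DMSO. Compound ranged in 3-fold steps over 10 points from 30 μM final; incubation ran 3 h at 25° C, detection antibodies a further 1.5 h. Reported as IC50.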

KRAS G12S = KRAS G12S (Homo sapiens (Human), UniProt P01116+P62937, G12S); assay: Ras-Raf (BRAF RBD) disruption / FRET / MOA assay, KRAS G12S; settings: Ras-Raf disruption/FRET/MOA assay; class symbols; read-out: KRAS G12S FRET data IC50
Method in brief: as §1

KRAS G12D = KRAS G12D (Homo sapiens (Human), UniProt P01116+P62937, G12D); assay: Ras-Raf (BRAF RBD) disruption / FRET / MOA assay, KRAS G12D; settings: Ras-Raf disruption/FRET/MOA assay; class symbols; read-out: KRAS G12D FRET data IC50
Method in brief: as §1

KRAS WT = KRAS WT (Homo sapiens (Human), UniProt P01116+P62937); assay: Ras-Raf (BRAF RBD) disruption / FRET / MOA assay, KRAS WT; settings: read-out: IC50* KRAS WT FRET data
Method in brief: as §1

KRAS G13D = KRAS G13D (Homo sapiens (Human), UniProt P01116+P62937, G13D); assay: Ras-Raf (BRAF RBD) disruption / FRET / MOA assay, KRAS G13D; settings: read-out: IC50* KRAS G13D FRET data
Method in brief: as §1

KRAS Q61H = KRAS Q61H (Homo sapiens (Human), UniProt P01116+P62937, Q61H); assay: Ras-Raf (BRAF RBD) disruption / FRET / MOA assay, KRAS Q61H; settings: Ras-Raf disruption/FRET/MOA assay; class symbols; read-out: KRAS Q61H FRET data IC50
Method in brief: (§2)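 TR-FRET disruption of nucleotide-loaded Ras binding to BRAF RBD via compound-driven ternary complex with cyclophilin A. Compound as 10-point 3-fold series from 30 μM final, 3 h at 25° C, then anti-His Eu-W1024 (10 nM) and anti-GST allophycocyanin (50 nM) for 1.5 h. IC50 from decreased FRET ratio versus DMSO.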

NRAS Q61K = NRAS Q61K (Homo sapiens (Human), UniProt P01111+P62937, Q61K); assay: Ras-Raf (BRAF RBD) disruption / FRET / MOA assay, NRAS Q61K; settings: NRAS Q61K; Ras-Raf disruption/FRET/MOA assay; read-out: IC50* NRAS Q61K FRET data
Method in brief: as §2

KRAS G12D, sequence (P01116-2 other isoform, or with tags, fused parts or gaps G12D): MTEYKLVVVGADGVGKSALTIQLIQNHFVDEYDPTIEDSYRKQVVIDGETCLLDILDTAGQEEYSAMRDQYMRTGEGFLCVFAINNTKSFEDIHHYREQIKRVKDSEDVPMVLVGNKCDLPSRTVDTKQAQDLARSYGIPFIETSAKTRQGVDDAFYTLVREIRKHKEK
KRAS G12D, sequence (P62937 whole entry): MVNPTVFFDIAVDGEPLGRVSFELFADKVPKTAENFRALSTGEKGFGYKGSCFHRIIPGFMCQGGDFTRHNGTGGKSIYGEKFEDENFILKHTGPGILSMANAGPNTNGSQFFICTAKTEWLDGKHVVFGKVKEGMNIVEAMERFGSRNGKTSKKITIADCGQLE
KRAS Q61H, sequence (P01116-2 other isoform, or with tags, fused parts or gaps Q61H): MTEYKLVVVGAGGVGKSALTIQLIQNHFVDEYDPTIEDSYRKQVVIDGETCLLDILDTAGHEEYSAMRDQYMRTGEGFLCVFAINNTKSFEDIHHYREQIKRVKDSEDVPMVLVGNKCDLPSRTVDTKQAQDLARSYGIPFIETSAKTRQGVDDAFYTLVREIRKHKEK
KRAS Q61H, sequence (P62937 whole entry): as the sequence (P62937 whole entry) above
NRAS Q61K, sequence (P01111 whole entry Q61K): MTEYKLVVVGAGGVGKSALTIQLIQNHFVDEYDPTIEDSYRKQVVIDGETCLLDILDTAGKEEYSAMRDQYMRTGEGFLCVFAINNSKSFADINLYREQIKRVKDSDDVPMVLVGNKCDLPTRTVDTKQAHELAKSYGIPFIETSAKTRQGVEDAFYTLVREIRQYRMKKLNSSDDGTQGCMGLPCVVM
NRAS Q61K, sequence (P62937 whole entry): as the sequence (P62937 whole entry) above
K-Ras G13C, sequence (P01116-2 other isoform, or with tags, fused parts or gaps G13C): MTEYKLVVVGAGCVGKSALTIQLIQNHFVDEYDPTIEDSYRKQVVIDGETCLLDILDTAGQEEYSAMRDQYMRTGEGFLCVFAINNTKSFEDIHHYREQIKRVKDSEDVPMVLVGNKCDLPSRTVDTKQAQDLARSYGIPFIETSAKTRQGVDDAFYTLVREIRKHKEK
K-Ras G13C, sequence (P62937 whole entry): as the sequence (P62937 whole entry) above
KRAS WT, sequence (P01116-2 other isoform, or with tags, fused parts or gaps): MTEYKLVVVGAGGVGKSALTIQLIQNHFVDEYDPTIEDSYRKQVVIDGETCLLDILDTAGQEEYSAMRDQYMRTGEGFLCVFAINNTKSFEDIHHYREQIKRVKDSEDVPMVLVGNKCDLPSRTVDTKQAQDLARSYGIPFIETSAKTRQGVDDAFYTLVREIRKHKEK
KRAS WT, sequence (P62937 whole entry): as the sequence (P62937 whole entry) above
KRAS G13D, sequence (P01116-2 other isoform, or with tags, fused parts or gaps G13D): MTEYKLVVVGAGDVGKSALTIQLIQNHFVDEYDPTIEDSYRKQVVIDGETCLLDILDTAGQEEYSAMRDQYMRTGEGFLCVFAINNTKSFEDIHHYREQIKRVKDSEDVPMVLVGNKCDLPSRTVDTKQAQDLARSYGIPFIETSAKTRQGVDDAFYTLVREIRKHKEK
KRAS G13D, sequence (P62937 whole entry): as the sequence (P62937 whole entry) above
KRAS G12S, sequence (P01116-2 other isoform, or with tags, fused parts or gaps G12S): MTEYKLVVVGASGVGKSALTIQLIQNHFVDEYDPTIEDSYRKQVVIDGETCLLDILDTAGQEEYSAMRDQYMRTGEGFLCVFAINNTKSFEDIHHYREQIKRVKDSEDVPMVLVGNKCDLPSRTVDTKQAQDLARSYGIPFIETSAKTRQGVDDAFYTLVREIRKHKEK
KRAS G12S, sequence (P62937 whole entry): as the sequence (P62937 whole entry) above

Compound	pIC50 (K-Ras G13C)	pIC50 (KRAS G12S)	pIC50 (KRAS G12D)	pIC50 (KRAS WT)	pIC50 (KRAS G13D)	pIC50 (KRAS Q61H)	pIC50 (NRAS Q61K)
CCn1c(-c2cccnc2[C@H](C)OC)c2c3cc(ccc31)-c1csc(n1)C[C@H](NC(=O)[C@H](C(C)C)N(C)C(=O)N1C[C@H]3CN(C(=O)C#CC(C)(C)N(C)C)CC[C@H]31)C(=O)N1CCC[C@H](N1)C(=O)OCC(C)(C)C2 (atropisomer, axis not shown) [Example A624]	6.00 to 7.00	6.00 to 7.00	5.00 to 6.00	6.00 to 7.00	6.00 to 7.00	6.00 to 7.00	6.00 to 7.00
CCn1c(-c2cccnc2[C@H](C)OC)c2c3cc(ccc31)-c1csc(n1)C[C@H](NC(=O)[C@H](F)COC1CN(C(=O)C#CC(C)(C)N(C)C)C1)C(=O)N1CCC[C@H](N1)C(=O)OCC(C)(C)C2 (atropisomer, axis not shown) [Example A627]	< 5.00	< 5.00	< 5.00	< 5.00	< 5.00	5.00 to 6.00	< 5.00
C=C(C)C(=O)N1CC2(CCN(C(=O)N(C)[C@H](C(=O)N[C@H]3Cc4nc(cs4)-c4ccc5c(c4)c(c(-c4cccnc4[C@H](C)OC)n5CC)CC(C)(C)COC(=O)[C@@H]4CCCN(N4)C3=O)C(C)C)CC2)C1 (atropisomer, axis not shown) [Example A651]	6.00 to 7.00	6.00 to 7.00	6.00 to 7.00	6.00 to 7.00	6.00 to 7.00	7.00 to 8.00	7.00 to 8.00
C=CC(=O)N(C)C[C@H]1CCN(C(=O)N(C)[C@H](C(=O)N[C@H]2Cc3nc(cs3)-c3ccc4c(c3)c(c(-c3cccnc3[C@H](C)OC)n4CC)CC(C)(C)COC(=O)[C@@H]3CCCN(N3)C2=O)C(C)C)C1 (atropisomer, axis not shown) [Example A653]	6.00 to 7.00	6.00 to 7.00	6.00 to 7.00	6.00 to 7.00	6.00 to 7.00	7.00 to 8.00	7.00 to 8.00
C=CC(=O)N(C)C[C@@H]1CCN(C(=O)N(C)[C@H](C(=O)N[C@H]2Cc3nc(cs3)-c3ccc4c(c3)c(c(-c3cccnc3[C@H](C)OC)n4CC)CC(C)(C)COC(=O)[C@@H]3CCCN(N3)C2=O)C(C)C)C1 (atropisomer, axis not shown) [Example A654]	6.00 to 7.00	6.00 to 7.00	6.00 to 7.00	6.00 to 7.00	6.00 to 7.00	7.00 to 8.00	7.00 to 8.00
CCn1c(-c2cccnc2[C@H](C)OC)c2c3cc(ccc31)-c1cccc(c1)C[C@H](NC(=O)[C@@H](COC1CN(C(=O)C#CC(C)(C)N(C)CCO)C1)C(C)C)C(=O)N1CCC[C@H](N1)C(=O)OCC(C)(C)C2 (atropisomer, axis not shown) [Example A657]	5.00 to 6.00	< 5.00	< 5.00	< 5.00	< 5.00	< 5.00	< 5.00
CCn1c(-c2cccnc2[C@H](C)OC)c2c3cc(ccc31)-c1csc(n1)C[C@H](NC(=O)[C@@H](COC1CN(C(=O)C#CC(C)(C)N(C)C)C1)OC)C(=O)N1CCC[C@H](N1)C(=O)OCC(C)(C)C2 (atropisomer, axis not shown) [Example A660]	6.00 to 7.00	5.00 to 6.00	5.00 to 6.00	6.00 to 7.00	5.00 to 6.00	6.00 to 7.00	6.00 to 7.00
C=CC(=O)N1CC[C@@]2(CCN2C(=O)N(C)[C@H](C(=O)N[C@H]2Cc3nc(cs3)-c3ccc4c(c3)c(c(-c3cccnc3[C@H](C)OC)n4CC)CC(C)(C)COC(=O)[C@@H]3CCCN(N3)C2=O)C(C)C)C1 (atropisomer, axis not shown) [Example A661]	6.00 to 7.00	6.00 to 7.00	5.00 to 6.00	6.00 to 7.00	6.00 to 7.00	7.00 to 8.00	7.00 to 8.00
